For 1 compound, inhibition results are on record in patent publication US20240316023A1, “BENEDIN, PIPERIDINE, 2-BENZHYDRYL-3-HYDROXY-N-METHYL-, HYDROCHLORIDE AND DERIVATIVES THEREOF FOR USE IN TREATING KLEINE-LEVIN SYNDROME” (priority 2021, published 2024).

This experiment deals with T1, M1 (h) (antagonist radioligand) (Homo sapiens, UniProt P11229).
T1 construct: CEREP (Eurofins, France), contract panel
T1 sequence (P11229 1-460): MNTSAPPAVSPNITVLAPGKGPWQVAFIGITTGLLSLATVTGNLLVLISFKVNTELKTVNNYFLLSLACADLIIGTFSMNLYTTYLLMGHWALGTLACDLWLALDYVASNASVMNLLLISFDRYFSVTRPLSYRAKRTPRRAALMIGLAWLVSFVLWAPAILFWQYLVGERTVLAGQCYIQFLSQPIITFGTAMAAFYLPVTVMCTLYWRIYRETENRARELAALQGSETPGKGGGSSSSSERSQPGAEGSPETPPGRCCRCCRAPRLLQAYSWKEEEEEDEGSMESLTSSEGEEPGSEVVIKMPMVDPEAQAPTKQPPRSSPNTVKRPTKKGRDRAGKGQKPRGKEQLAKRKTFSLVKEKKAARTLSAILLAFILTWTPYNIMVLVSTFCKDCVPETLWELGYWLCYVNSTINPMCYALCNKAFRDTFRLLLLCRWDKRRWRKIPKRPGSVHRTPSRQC
The experiment can be described thus: Radioligand binding panel (Eurofins/CEREP), M1. The settings on record: 10^−5 M; % inhibition of control specific binding; read-out: % Inhibition at 10^−5M Benedin. The procedure:
Benedin was tested at 10^−5 M, calculated as a % inhibition of control specific binding of a radioactively labeled ligand specific for each target.
This binding profile panel was broadly defined with roughly an equal number of selective, central and peripheral therapeutically relevant targets, including native animal tissues, radioligands and specific enzymes involved in cell cycle regulation in accordance with Eurofins Standard Operating Procedure.
For radioligand binding experiments, the half maximal inhibitory concentration (IC50) and the half maximal effective concentration (EC50) values were determined (via computer software) by nonlinear regression analysis of the competition curves using Hill equation curve fitting. The inhibition constants (Ki) were calculated using the Cheng-Prusoff equation (Ki=IC50/(1+(L/KD)), where L is the concentration of radioligand in the assay, and KD is the affinity of the radioligand for the receptor.^60
The results are expressed as a % control specific binding ([measured specific binding/control specific binding]×100) and as a % inhibition of control specific binding (100−[(measured specific binding/control specific binding)×100] obtained in the presence of the test compounds. […]

In the case of `CN1CCCC(O)C1C(c1ccccc1)c1ccccc1` (stereo not shown) [Benedin, 2-benzhydryl-3-hydroxy-N-methyl-piperidine], the inhibition at 10 µM worked out at 75%.

For orientation: inhibition means the percentage by which the read-out fell short of the control.
